Results as given in patent EP3124027A1, “TRIPHENYLPHOSPHONIUM SALTS FOR USE IN CANCER THREAPY” (Centrum Badan Molekularnych I Makromolekularnych Polskiej …, priority 2015, dated 2017).
Like-named read-outs stand apart in the source and are kept apart here.

Assays:
[1] = tested on: cervical carcinoma HeLa cells and chronic myelogenous leukemia K562 cells; test: MTT cytotoxicity, summary ranges over HeLa and K562 cells; assay type: cell-based; conditions: Homo sapiens, read-out: IG50 (the source's name)
Experimental: Compound 1, where R = ethyl, X = I (formula 1a) and the compound 1 where R = n-octyl, and X = I (formula 1b, were tested for cytotoxic properties on two representatives of human tumor cells: adherent HeLa cells (cervical carcinoma) and suspension K562 cells (chronic myelogenous leukemia). The cytotoxicity of the test compounds was determined with the MTT test in which the yellow tetrazolium salt is reduced by dehydrogenase in the mitochondria of living cells into a purple formazan. 1.HeLa or K562 cells were seeded in 96-well plates in the amount of seven thousand cells/well in 200 µL of culture medium. Cells were incubated overnight in an incubator (37 °C, 5% CO2) 2. The tested compound was added to the cells to yield the following final concentrations in the cell culture: 1 mM, 10 µM, 100 nM, 1 nM. Cells treated with 1% DMSO served as the control with 100% viability. 3. […] MTT, a yellow tetrazolium salt is reduced to purple formazan by mitochondrial dehydrogenases of living cells, the quantity of which can be determined spectrophotometrically. Cells were incubated with MTT for two hours in an incubator (37 ° C, 5% CO2). Next, lysis buffer containing SDS and DMF was added (95 µL / well). Cells were lysed overnight at 37 ° C, 5% CO2. 4. The absorbance of each well was read on FLUOstar Omega reader at the wave length of 570 and 650 nm. The absorbance measured at 570 nm is proportional to the number of viable cells. The viability of the cells was calculated for each concentration of the test compound. The IC50 values were read from the dose - viability plots by interpolation to 50% cell survival. 5.The results indicating the strong toxicity of both, compound 1a and compound 1b to the adherent HeLa cells and suspension K562 cells are shown in Tables 1 and 2.

[2] = tested on: HeLa cells (cervical carcinoma); test: MTT cytotoxicity test on adherent HeLa cells; assay type: cell-based, human; conditions: for cytotoxicity, times greater in relation to the salt Fh3P^+C5H11 I^-: HeLa cells after 48 h; for IC50: Homo sapiens, HeLa
Experimental: (§1) Compound 1, where R = ethyl, X = I (formula 1a) and the compound 1 where R = n-octyl, and X = I (formula 1b, were tested for cytotoxic properties on two representatives of human tumor cells: adherent HeLa cells (cervical carcinoma) and suspension K562 cells (chronic myelogenous leukemia). The cytotoxicity of the test compounds was determined with the MTT test in which the yellow tetrazolium salt is reduced by dehydrogenase in the mitochondria of living cells into a purple formazan. 1.HeLa or K562 cells were seeded in 96-well plates in the amount of seven thousand cells/well in 200 µL of culture medium. Cells were incubated overnight in an incubator (37 °C, 5% CO2) 2. The tested compound was added to the cells to yield the following final concentrations in the cell culture: 1 mM, 10 µM, 100 nM, 1 nM. Cells treated with 1% DMSO served as the control with 100% viability. 3. After 24 h or 48 h incubation of HeLa or K562 cells with test compounds, 25 µL of MTT (5 mg / mL) was added to each well. MTT, a yellow tetrazolium salt is reduced to purple formazan by mitochondrial dehydrogenases of living cells, the quantity of which can be determined spectrophotometrically. Cells were incubated with MTT for two hours in an incubator (37 ° C, 5% CO2). Next, lysis buffer containing SDS and DMF was added (95 µL / well). Cells were lysed overnight at 37 ° C, 5% CO2. 4. The absorbance of each well was read on FLUOstar Omega reader at the wave length of 570 and 650 nm. The absorbance measured at 570 nm is proportional to the number of viable cells. The viability of the cells was calculated for each concentration of the test compound. The IC50 values were read from the dose - viability plots by interpolation to 50% cell survival. 5.The results indicating the strong toxicity of both, compound 1a and compound 1b to the adherent HeLa cells and suspension K562 cells are shown in Tables 1 and 2.
(§2) The compound of formula 1c was tested for cytotoxic properties on two human cell lines using the MTT assay (yellow tetrazolium salt transformed by dehydrogenase in the mitochondria of living cells into the purple formazan). The tests were performed on HeLa (cervical carcinoma) and K562 (chronic myelogenous leukemia) cells.
(§3) (Experimental protocol as in Example I).

[3] = tested on: K562 cells (chronic myelogenous leukemia); test: MTT cytotoxicity test on suspension K562 cells; assay type: cell-based, human; conditions: for fold decrease of IC50 after 48 h compared to IC50 after 24h: K562 cells; for cytotoxicity, times greater in relation to the salt Fh3P^+C5H11 I^-: K562 cells after 48 h
Experimental: as §1, §2, §3

K562 and HeLa cells = conditions: PL395749, cited from earlier work
[4] = tested on: cervical carcinoma cells (HeLa); conditions: after 24 h, PL395749; cited from earlier work
K562 cells = conditions: K562, 24 h; PL395749; cited from earlier work
HeLa cells = conditions: read-out: cytotoxicity EC50; cited from earlier work
[5] = Homo sapiens, K562, 24 h, read-out: IC50
[6] = Homo sapiens, K562, 48 h, read-out: IC50

Structure (SMILES)	IC50 ([1]; after 4 h (so in the source)) [µM]	IC50 ([1]; after 48 hrs) [µM]	cytotoxicity, times greater in relation to the salt Fh3P^+C5H11 I^- [2]	IC50 ([2]; 24h, read-out: IC50) [µM]	IC50 ([2]; 48h, read-out: IC50) [µM]	IC50 [3, 5] [µM]	IC50 [3, 6] [µM]	fold decrease of IC50 after 48 h compared to IC50 after 24h [3]	cytotoxicity, times greater in relation to the salt Fh3P^+C5H11 I^- [3] [times]	other results
CCCCCCCCCC[P+](c1ccccc1)(c1ccccc1)c1ccccc1.[I-] [Compound 1a, n-decyltriphenylphosphonium iodide]	2 to 7	0.5 to 5	12-15 times	7	5	3	0.5	six	12	–
CCCCC[P+](c1ccccc1)(c1ccccc1)c1ccccc1 [Compound C5]	–	–	–	–	–	–	–	–	–	IC50 (K562 and HeLa cells; after 24 h): 50 to 90 µM; IC50 (K562 and HeLa cells; second value for C5, printed after 24 h): 6 to 60 µM; IC50 [4]: 90 µM; IC50 (K562 cells): 50 µM
CCCCCCCCCCCCCCCC[P+](c1ccccc1)(c1ccccc1)c1ccccc1.[I-] [Compound 1b, triphenyl-n-hexadecylphosphonium iodide]	2 to 7	0.5 to 5	12-15 times	5	4	2	0.5	four	12	–
CCCCCCCCCCCCCC[P+](CCCCCC)(CCCCCC)CCCCCC.O=S(=O)([N-]S(=O)(=O)C(F)(F)F)C(F)(F)F [tri-n-hexyl(tetradecyl)phosphonium bis(trifluoromethylsulfonyl) imide]	–	–	–	–	–	–	–	–	–	EC50 (HeLa cells): 80 µM
BrCc1ccc(-c2ccc(C[P+](c3ccccc3)(c3ccccc3)c3ccccc3)cc2)cc1 [Compound 1c]	–	–	–	–	–	–	–	–	–	IC50 ([2]; 48 h (Table 2, compound 1c), read-out: IC50 48 h): 30 µM; IC50 ([3]; Homo sapiens, K562, 48 h, K562, 48 h (Table 2, compound 1c), read-out: IC50 48 h): 6 µM; IC50 ([3]; K562, 48 h (Table 2, compound 1c), read-out: IC50 48 h): 5 µM
